From paper PMC7919409, “Crystal structures of adenylylated and unadenylylated PII protein GlnK from Corynebacterium glutamicum” (Acta Crystallographica. Section D, Structural Biology, 2021)

Target: T1, adGlnK (adenylylated GlnK) (Corynebacterium glutamicum, UniProt H7C694)
T1 construct: gene glnB; full length, untagged (stop codon inserted before Xa-Strep tag), produced in C. glutamicum; Tyr51 O-adenylylated (AMP covalently attached); homotrimer, hexamer in crystal; 112 residues
Experiment: X-ray crystal structure, […] A
Format: binding
Details: fortuitously bound, co-purified (no nucleotide added), one of six effector sites at subunit interface, Tyr51 adenylylated, Mg, Ca, pH 7.1, 292 K

T1 sequence (H7C694 entry or part of it): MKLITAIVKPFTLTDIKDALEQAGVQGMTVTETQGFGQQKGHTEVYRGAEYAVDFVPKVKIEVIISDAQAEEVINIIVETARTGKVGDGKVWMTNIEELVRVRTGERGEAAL

SMILES: Nc1ncnc2c1ncn2[C@@H]1O[C@H](COP(=O)(O)OP(=O)(O)O)[C@@H](O)[C@H]1O [ADP]
- X-ray crystal structure, 1.8 A: fortuitous binding of AMP and ADP was observed in the remaining two binding sites

SMILES: Nc1ncnc2c1ncn2[C@@H]1O[C@H](COP(=O)(O)O)[C@@H](O)[C@H]1O [AMP]
- X-ray crystal structure, 1.8 A (non-covalent AMP in ATP-binding pocket, distinct from): fortuitous binding of AMP and ADP was observed in the remaining two binding sites
